In ChEMBL document CHEMBL1158738, “Constituents of the leaves and twigs of Calyptranthes pallens collected from an experimental plot in Southern Florida” (J Nat Prod, 2005):
In brackets after ≈: the same amount, converted by molar mass.

Columns and labels:
MCF7 = test: Cytotoxicity against human MCF7 cells; format: functional; conditions: read-out: ED50 (the source's name)
Lu1 = test: Cytotoxicity against human Lu1 cells; format: functional; conditions: read-out: ED50 (the source's name)
KB = test: Cytotoxicity against human KB cells; format: functional; conditions: read-out: ED50 (the source's name)
[1] = Cytotoxicity against HUVEC; format: cell-based; conditions: human, HUVEC cells; read-out: ED50 (the source's name)
[2] = Cytotoxicity against human telomerase reverse transcriptase human RPE1 cells; format: functional, TERT-RPE1; conditions: RPE-1, read-out: ED50 (the source's name)
LNCaP = test: Cytotoxicity against human LNCAP cells; format: functional; conditions: read-out: ED50 (the source's name)

| SMILES | EC50 (MCF7) | EC50 (Lu1) | EC50 (KB) | CC50 [1] | EC50 [2] | EC50 (LNCaP) |
| --- | --- | --- | --- | --- | --- | --- |
| COc1cc([C@@H]2c3cc(O)c(OC)cc3C[C@@H](C)[C@H]2C)ccc1O [ISOGUAIACIN] | 12.4 µg/mL (≈ 37.8 µM) | 15.7 µg/mL (≈ 47.8 µM) | 6.4 µg/mL (≈ 19.5 µM) | 14.7 µg/mL (≈ 44.8 µM) | > 20 µg/mL | 11.8 µg/mL (≈ 35.9 µM) |
| CCCC(=O)c1c(O)c(C)c(OC)c(Cc2c(O)c(C(=O)CCC)c(O)c(C)c2OC)c1O | 7.3 µg/mL (≈ 15.9 µM) | 19.4 µg/mL (≈ 42.1 µM) | 2.7 µg/mL (≈ 5.86 µM) | 6.1 µg/mL (≈ 13.2 µM) |  | 6.6 µg/mL (≈ 14.3 µM) |
| CC1=CC[C@]2(C(=O)O)CC[C@]3(C)[C@H](CC[C@@H]4[C@@]5(C)CC[C@H](O)C(C)(C)[C@@H]5CC[C@]43C)[C@H]2[C@@H]1C | 9.7 µg/mL (≈ 21.2 µM) | 12.9 µg/mL (≈ 28.2 µM) | > 20 µg/mL | 10.4 µg/mL (≈ 22.8 µM) |  | 7.3 µg/mL (≈ 16 µM) |
